Data on two compounds can be found in patent US9387135B2, “Absorbent article” (UNICHARM CORPORATION, priority 2012, dated 2016).

The text on data set [1]:
The term “solubility” used herein in regard to water solubility includes cases where the sample completely dissolves in deionized water to form a homogeneous mixture, and cases where the sample is completely emulsified. Here, “completely” means that no mass of the sample remains in the deionized water.

Data set [2] is described as follows: Surface tension of blood containing blood modifying agent, pendant drop method. The following applies: 0.10 mass % in sheep defibrinated blood, 35 ° C. As to the method: The surface tension of blood containing a blood modifying agent was measured by the pendant drop method, using a Drop Master500 contact angle meter by Kyowa Interface Science Co., Ltd. The surface tension was measured after adding a prescribed amount of blood modifying agent to sheep defibrinated blood, and thoroughly shaking. The measurement was accomplished automatically with a device, and the surface tension γ was determined by the following formula (see FIG. 13). γ=g×ρ×(de)^2×1/H The density ρ was measured at the temperatures listed in Table 5, according to JIS K 2249-1995, “Density test methods and density/mass/volume conversion tables”, “5. Vibrating density test method”. The measurement was accomplished using a DA-505 by Kyoto Electronics Co., Ltd.

A value given as a limit tells only on which side of the number the result lay.

For `CCCCCCCC(=O)OCC(COC(=O)CCCCCCC)OC(=O)CCCCCCC` [PANACET 800], the Water solubility in data set [1] was under 0.05 g.

`CCCCCCCCCCCCOC(=O)CCCCCCCCCCC` [ELECTOL WE20, Ester of dodecanoic acid (C12) and dodecyl alcohol (C12)]: the Surface tension in data set [2] stood at 58.8 mN/m.
